According to patent publication US5432159A, “N-(α-substituted-pyridinyl)carbonyl dipeptide antihypertensive agents” (Lacer S.A., priority 1991, dated 1995):

Key:
[1] = test system: Angiotensin I-Induced Contractions in Guinea-Pig Ileum; test: Inhibition of Angiotensin I-induced contractions in guinea-pig ileum; conditions: final bath concentration 10 ng/ml; Angiotensin I 100 ng/ml; compound added 2 min before agonist; average of ilea from 5 guinea-pigs
Description: Segments of 1.5 cm of freshly excised and washed terminal ileum were suspended in 25-ml tissue baths containing Tyrode's solution at 31° C. and bubbled with 95% O2 -5% CO2. With an initial load of 1.0 g, the resting tension after equilibration and the responses to Angiotensin I or Angiotensin II (both at 100 ng/ml) were monitored and recorded by means of an Ealing isometric transducer and a Lectromed polygraph. Several compounds of this invention were tested in this system, adding them to the bath 2 min. before the respective agonist.
At final bath concentrations of 10 ng/ml, the inhibitory effect of the tested compounds regarding the Angiotensin I-induced contractions was determined. The obtained results are given in Table I. All % inhibitions given therein are the average of results obtained with segments of ilea from 5 guinea-pigs. At final bath concentrations of 1 μg/ml none of the tested compounds produced an appreciable modification of the contractions induced by Angiotensin II.

[2] = test system: spontaneously hypertensive rats; test: Antihypertensive activity in spontaneously hypertensive rats (SHR), tail cuff systolic blood pressure; type: in vivo; conditions: for average reduction of the SBP: 1 h after administration, significantly different from control
Description: In this recognized model of hypertension, male spontaneously hypertensive rats (315 to 376 g) with systolic blood pressures (SBP) >160 mm Hg were used. Systolic blood pressures were recorded on conscious animals by a tail cuff method (FS-40 blood pressure/pulse monitor). Prior to all measurements, the rats were placed in a restraining cylinder. […] The pressures were monitored again 1, 2, 3, 4 and 24 h after administration of the test compounds. A control group (n=18) was included for comparison purposes.

[3] = oral 30 mg/kg, after 2, 3, 4 and 24 h, Duncan-Kramer test, p<0.05

| SMILES | % Inhibition of Angiotensin I-induced contractions [1] [%] | average reduction of the SBP ([2]; oral 30 mg/kg) [mm Hg] | antihypertensive effect ([2]; oral 30 mg/kg, overall) | also measured |
| --- | --- | --- | --- | --- |
| C[C@H](NC(=O)c1ccc(=O)[nH]c1)C(=O)N1CCC[C@H]1C(=O)O [Compound No. 35, N-[(1,6-dihydro-6-oxo-3-pyridinyl)carbonyl]-L-alanyl-L-proline] | 16.0 |  |  |  |
| C[C@H](NC(=O)c1cccc(Cl)n1)C(=O)N1CCC[C@H]1C(=O)O [Compound No. 24, N-[(6-Chloro-2-pyridinyl)carbonyl]-L-atanyl-L-proline] | 20.6 |  |  |  |
| CCOC(=O)c1cccc(C(=O)N[C@@H](C)C(=O)N2CCC[C@H]2C(=O)OCC)n1 [Compound No. 8, N-[(2-Ethoxycarbonyl-6-pyridinyl)carbonyl]-L-alanyl-L-proline ethyl ester] |  | 32.6±7.49 | significant antihypertensive effect | SBP reduction versus control [2, 3]: significantly different from the control; antihypertensive effect ([2]; oral doses of 7.5 and 15 mg/kg): Antihypertensive effects were also observed |
| C[C@H](CS)C(=O)N1CCC[C@H]1C(=O)O [Captopril, D-3-mercapto-2-methylpropanoyl-L-proline, reference compound] | 28.9 | 17.2±8.49 |  | SBP reduction versus control ([2]; oral 30 mg/kg, after 24 h): inactive |
| CCOC(=O)[C@@H]1CCCN1C(=O)[C@H](C)NC(=O)c1ccc[nH]c1=O [Compound No. 21, N-[(1,2-Dihydro-2-oxo-3-pyridinyl)carbonyl]-L-alanyl-L-prolineethyl ester] | 30.7 |  | significant antihypertensive effect | SBP reduction, time course ([2]; oral 30 mg/kg, monitored 1, 2, 3, 4 and 24 h): significant reduction only after 2 h; SBP reduction ([2]; oral 45 mg/kg, after 2, 3, 4 and 24 h): significant |
| C[C@H](NC(=O)c1ccc(=S)[nH]c1)C(=O)N1CCC[C@H]1C(=O)O [Compound No. 29, N-[(1,6-dihydro-6-thioxo-3-pyridinyl)carbonyl]-L-alanyl-L-proline] | 16.2 |  |  |  |
| C[C@H](NC(=O)c1cc[nH]c(=S)c1)C(=O)N1CCC[C@H]1C(=O)O [Compound No. 27, N-[(1,2-dihydro-2-thioxo-4-pyridinyl)carbonyl]-L-alanyl-L-proline] | 18.1 | 28.4±3.16 | significant antihypertensive effect | SBP reduction versus control [2, 3]: significantly different from the control; antihypertensive effect ([2]; oral doses of 7.5 and 15 mg/kg): Antihypertensive effects were also observed |
